Source: paper PMC9356275, “A quantitative high-throughput screen identifies compounds that lower expression of the SCA2-and ALS-associated gene ATXN2” (The Journal of Biological Chemistry, 2022)
Where a name gives a salt, the structure may show the parent alone. Read-outs that look alike come from different tables or passages of the source.

Key:
Format in all cases: cell-based, human
[1] = test system: ATXN2-luc; assay: MSSR pilot screen: ATXN2-luc luciferase assay (Bright-Glo) in H2 cells, single 10 μM dose; details: for SD from mean (ATXN2-luc, Z-score): H2 cells, single dose (title: 10 μM compound), overnight; for ¦Score/1SD¦: absolute score divided by 1SD (0.891 or 0.9)
[2] = test system: ATXN2-luc; assay: MSSR hit retest / multiconcentration testing: ATXN2-luc luciferase assay in H2 cells (1 and 10 μM); details: for H2&S1 ave luc 1uM: 1 uM compound
[3] = test system: ATXN2-luc; assay: MSSR hit retest: ATXN2-luc luciferase assay, average of H2 and S1 cells (1 and 10 uM); details: Homo sapiens; for activity at 1 µM: read-out: H2&S1 ave luc 1uM; for activity at 10 µM: head line r3 10uM; for activity at 10 µM / activity: read-out: H2&S1 ave luc 10uM
Description: (§1) Supplement mmc2.xlsx, sheet "43 annotated compounds"

[4] = test system: H2 and S1 cells; assay: Paired MTT viability assay, average of H2 and S1 cells (1 and 10 uM); details: Homo sapiens
Description: as §1

[5] = test system: ATXN2-luc; assay: NCATS qHTS (LOPAC pilot, primary and confirmation): ATXN2-luc in S2 cells, 1536-well, Steady-Glo; details: LOPAC library screening optimization; for AC50: Homo sapiens
Method: We next performed a pilot screen assay to optimize the 1536-well qHTS using S2 cells. […] Cytotoxicity was determined using a multiplexed viability assay (CellTiter-Fluor, a fluorescence-based viability assay using Gly-Phe-7-amino-4-trifluoromethylcoumarin substrate).
CellTiter-Fluor was used to determine compound effect on cell viability, and Steady-Glo was used to measure luciferase in a multiplexed assay.
The primary assay was conducted at the NCATS NIH Chemical Genomics Center laboratory. About 4 μl of S2 cell suspension in phenol red–free DMEM was dispensed into wells of 1536-well assay plates. […] Next, SteadyGlo luciferase substrate detection reagent (3 μl) was added to each well and incubated for an additional 5 min at room temperature. Luminescence was then measured on the ViewLux imager equipped with clear filters using a 2 s exposure. All screening operations were performed on a fully integrated robotic system (Kalypsys) containing one RX-130 and two RX-90 anthropomorphic robotic arms (Stäubli). Vehicle-only plates, with DMSO being pin-transferred to columns 5 to 48, were inserted uniformly at the beginning and the end of each library in order to monitor and record any shifts in assay performance.

[6] = test system: CMV-luc; assay: Secondary assays: CMV-luc in SC cells, Bright-Glo; details: minimum CMV-luc signal in SC cells over 12 doses; summary data
Method: (§2) Compounds were plated at 2× concentrations in phenol red–free DMEM in 25 μl in 384-well plates with each compound dose plated in triplicate. An equal volume of S2, H2, or SC cells (24,000 cells/well) suspended in phenol red–free DMEM with 10% fetal bovine serum and 1× penicillin/streptomycin were added. Cells were grown 24 h and then assayed first by using the CellTiter-Fluor reagent (20 μl) followed by the addition of Bright-Glo (65 μl) luciferase assay, using a multimode plate reader (Beckman; DT880). Values were reported as the mean ± SD with n = 3. IC50s were determined by the Hill coefficient method using an online tool (https://www.aatbio.com/tools/ic50-calculator).

[7] = test system: ATXN2-luc; assay: Secondary assays: ATXN2-luc in S2 and H2 cells, 12 doses, Bright-Glo; details: summary data
Method: The values for H2 and S2 were used as replicates to calculate IC50s and to assess cell viability.
as §2

[8] = pilot screen at 10 µM compound, H2 cells expressing ATXN2-luc
[9] = luciferase, average of H2 and S1 cells expressing ATXN2-luc, rescreen
[10] = 1 uM compound, average of H2 and S1 cells
[11] = 1 uM compound, read-out: H2&S1 ave MTT 1uM
[12] = 10 uM compound, read-out: H2&S1 ave MTT 10uM
[13] = pilot screen, H2 cells expressing ATXN2-luc, single dose printed as 10 μM compound
[14] = read-out: H2&S1 ave MTT 1uM, 1 uM compound
[15] = read-out: H2&S1 ave MTT 10uM, 10 uM compound

Structure (SMILES) | SD from mean (ATXN2-luc, Z-score) [1] [SD] | SD from mean (pilot screen) ([1]; pilot screen) [SD] | SD from mean (pilot screen) [1, 8] | ¦Score/1SD¦ ([1]; pilot screen) | activity at 1 µM [3, 10] [%] | activity at 10 µM ([3]; average of H2 and S1 cells) [%] | viability at 1 µM [4, 11] [%] | viability at 10 µM [4, 12] [%] | SD from mean (pilot screen) [1, 13] | activity at 1 µM [3] [%] | activity [3] [%] | viability at 1 µM [4, 14] [%] | viability at 10 µM [4, 15] [%] | further results
CC(N/C(=N\C#N)Nc1ccncc1)C(C)(C)C (stereo not drawn) | -4.875 | -4.875 | -4.875 | 5.47 | 117 | 17 | 107 | 51.5 |  |  |  |  |  | H2&S1 ave luc 1uM [2, 9]: 117
CCCCCCCCCOc1ccc2[nH]cc(CCN)c2c1 [5-Nonyloxytryptamine] | -3.607 | -3.607 |  | 4.01 |  |  |  |  | -3.607 | 111 | 4.61 | 114 | 23.7 | H2&S1 ave luc 1uM ([2]; luciferase assay, average of H2 and S1 cells (both ATXN2-luc), rescreen from plated libraries): 111
CC[C@H]1CN2CCc3cc(OC)c(OC)cc3[C@@H]2C[C@@H]1C[C@H]1NCCc2cc(OC)c(OC)cc21 [Emetine dihydrochloride] | -4.840 | -4.840 | -4.840 | 5.43 | 18 | 19 | 59.7 | 58.1 |  |  |  |  |  | 
CC(=O)O[C@H]1CC[C@@]2(C)[C@H](CC[C@@H]3[C@@H]2CC[C@]2(C)[C@@H](C4=CC(=O)OC4)[C@@H](OC(C)=O)C[C@]32O)C1 [GITOXIGENIN DIACETATE] | -4.261 | -4.261 | -4.261 | 4.73 |  |  |  |  |  | 27 | 21 | 39.7 | 40.3 | 
C[C@H]1O[C@@H](O[C@H]2[C@@H](O)C[C@H](O[C@H]3[C@@H](O)C[C@H](O[C@H]4CC[C@@]5(C)[C@H](CC[C@@H]6[C@@H]5CC[C@]5(C)[C@@H](C7=CC(=O)OC7)[C@@H](O)C[C@]65O)C4)O[C@@H]3C)O[C@@H]2C)C[C@H](O)[C@@H]1O [GITOXIN] | -4.086 | -4.086 | -4.086 | 4.54 | 21 | 12 | 28.7 | 40.3 |  |  |  |  |  | 
C[C@H]1O[C@@H](O[C@H]2CC[C@]3(C=O)[C@H]4CC[C@]5(C)[C@@H](C6=CC(=O)OC6)CC[C@]5(O)[C@@H]4CC[C@]3(O)C2)C[C@H](O)[C@@H]1O [Helveticoside] | -2.733 | -2.733 |  | 3.07 |  |  |  |  | -2.733 | 118 | 41 | 99 | 37.1 | AC50 ([5]; logarithm of AC50 (negative values), read-out: Log AC50 (converted)): 3.55 µM; AC50 ([5]; read-out: AC50): 3.55 µM; Efficacy ([5]; curve-fit parameter): -86.9163; Inf Activity ([5]; curve-fit parameter): -84.4727
CC(=O)O[C@H]1C[C@H](O[C@H]2[C@@H](O)C[C@H](O[C@H]3[C@@H](O)C[C@H](O[C@H]4CC[C@@]5(C)[C@H](CC[C@@H]6[C@@H]5C[C@@H](O)[C@]5(C)[C@@H](C7=CC(=O)OC7)CC[C@]65O)C4)O[C@@H]3C)O[C@@H]2C)O[C@H](C)[C@H]1O[C@@H]1O[C@H](CO)[C@@H](O)[C@H](O)[C@H]1O [LANATOSIDE C] |  |  |  |  |  |  |  |  |  | 39 | 15 | 35 | 35.6 | H2&S1 ave luc 1uM [2, 9]: 39; H2&S1 ave luc 10uM ([2]; 10 uM compound, luciferase, average of H2 and S1 cells expressing ATXN2-luc, rescreen): 15
Nc1ccc(-c2ccc3ncc4ccc(=O)n(-c5cccc(C(F)(F)F)c5)c4c3c2)cn1 [NCGC00263216-02, torin 2] |  |  |  |  |  |  |  |  |  |  |  |  |  | min SC luc (%) [6]: 128.375%; IC50 ([7]; ATXN2-luc luciferase assays in H2 and S2 cells, 12 doses plus a zero dose, read-out: Mean IC50): 0.257 µM; min ATXN2-luc (%) ([7]; minimum ATXN2-luc signal over 12 doses, H2 and S2 cells): 25.4183%
CO[C@H]1[C@H](O)[C@H](O[C@H]2CC[C@@]3(C)[C@H](CC[C@@H]4[C@@H]3CC[C@]3(C)[C@@H](C5=CC(=O)OC5)CC[C@]43O)C2)O[C@@H](C)[C@@H]1O [NERIIFOLIN] | -3.045 | -3.045 |  | 3.38 |  |  |  |  | -3.045 | 17 | 17 | 30.8 | 36.1 | 
COC(=O)C1=C(C)NC(C)=C(C(=O)OCCN(C)Cc2ccccc2)C1c1cccc([N+](=O)[O-])c1 (stereo not drawn) [NICARDIPINE] | -2.782 | -2.782 |  | 3.12 | 112 | 61 | 140 | 87 | -2.782 |  |  |  |  | 
CO[C@H]1C[C@H](O[C@H]2CC[C@]3(C)[C@H]4CC[C@]5(C)[C@@H](C6=CC(=O)OC6)CC[C@]5(O)[C@@H]4CC[C@]3(O)C2)O[C@H](C)[C@H]1O [PERIPLOCYMARIN] | -2.759 | -2.759 |  | 3.07 |  |  |  |  | -2.759 | 75 | 17 | 58.7 | 37.1 | 
CO[C@H]1[C@H](O)[C@H](O[C@H]2CC[C@@]3(C=O)[C@H](CC[C@@H]4[C@@H]3CC[C@]3(C)[C@@H](C5=CC(=O)OC5)CC[C@]43O)C2)O[C@@H](C)[C@@H]1O [PERUVOSIDE] | -4.038 | -4.038 | -4.038 | 4.49 |  |  |  |  |  | 15 | 12 | 47.5 | 60 | 
CC(=O)Oc1cccc(O)c1 [RESORCINOL MONOACETATE] | -6.242 | -6.242 | -6.242 | 6.94 | 120 | 4.6 | 115 | 19.9 |  |  |  |  |  | 
C[C@]12CC[C@H](O)C[C@H]1CC[C@@H]1[C@@H]2[C@H](O)C[C@]2(C)[C@@H](C3=CC(=O)OC3)CC[C@]12O [SARMENTOGENIN] | -3.539 | -3.539 |  | 3.93 |  |  |  |  | -3.539 | 53 | 24 | 45.8 | 41.2 | 
C[C@]12CC[C@H]3[C@@H](CC[C@]4(O)C[C@@H](O)CC[C@]34C=O)[C@@]1(O)CC[C@@H]2C1=CC(=O)OC1 [STROPHANTHIDIN] |  | -4.451 | -4.451 | 4.95 |  |  |  |  |  | 16 | 15 | 40.1 | 45.5 | 
C[n+]1cc2c3c(ccc2c2ccc4cc5c(cc4c21)OCO5)OCO3 [Sanguinarine] | -2.689 | -2.689 |  | 3.02 |  |  |  |  | -2.689 | 127 | 160 | 103 | 114 | 
